# Measured values taken from patent US20020037495A1, “High throughput screening for inhibitors of fatty acid, ergosterol, sphingolipid, or phospholipid synthesis in fungi” (priority 2000, published 2002).
# Like-named read-outs stand apart in the source and are kept apart here.
# Legend:
# OLE1 promoter = assay: OLE1 promoter-lacZ reporter induction (chemiluminescence); type: cell-based, S. cerevisiae
# Excerpt: (§1) The OLE1, YOL101c, and YGL039w promoters (along with their respective ATG translation start sites) each were, individually, flised to a lacZ reporter gene (which lacked an ATG translation start site) and introduced in the vector pRS415. The resulting reporter plasmids were then, separately, introduced into a multi-drug resistant yeast strain, thereby producing PL1, P41, and Ml, which are identical to each other except that PL1 carries the […], and M1 carries the YGL039w promoter (Millennium Pharmaceuticals, Inc., MMB#1495, 1497 and 1604, respectively). These yeast strains can be readily used to measure the level of activity of the OLE1, YOL101c, or YGL039w promoter by measuring expression of the lacZ gene. Enzymatic and colorimetric assays for measuring lacZ gene expression are well known in the art and can be used in the invention.
# For example, the test compounds can be tested at concentrations of 25 μM and 100 μM. In a convenient high throughput screening method, the test compounds can be assayed in the wells of a multiple-well (e.g., 96-well) plastic plate (e.g., Packard, Inc. Cat. # 6005181), with each well containing a different test compound. Thus, one plate can contain the test compounds at a concentration of 25 μM, while another plate contains the test compounds at a concentration of 100 μM. Each well also contains up to 2.5% DMSO.
# Cerulenin is used as a positive control in wells lacking a test compound. A stock solution of cerulenin (2,3-Epoxy-4-oxo-[…]) can be prepared to a concentration of 10 mg/ml in DMSO and stored at −20° C.
# Induction of OLE1 Promoter Activity: The yeast glycerol stocks described above are used to prepare fresh yeast cultures that are used in the screening assays. The cell suspension, if frozen, is thawed at 37° C., and 33 μl of the stock is added to 12 ml of SC-Leu medium. The culture then is incubated in a shaking Erlemneyer flask at 30° C. overnight (approximately 14-15 hours). The OD600 of the culture then is measured, with a culture having an OD600 of 0.05-0.15 being suitable for use. […] 1; if necessary, the culture can be diluted with SC-Leu medium to obtain the desired OD600. A 100 μI aliquot of the yeast culture then is added to each well of the 96-well plate containing a test compound, and the cultures are incubated at 30° C. for approximately 6 hours.
# To assay for an increase in the activity of the OLE1 promoter, an increase in the level of the lacZ reporter gene expression is measured. A 100 μl aliquot of 2 X substrate buffer is added to each well of the plate. To produce a 100 ml sample of 2 X substrate buffer, the following components are mixed within 1 hour of use, and kept at room temperature: 4.0 ml of GALACTON-STAR™ substrate ((3-chloro-5-(4-methoxyspiro { 1,2-dioxetane-3,2′-(4′chloro)-tricyclo-[3.3.1.1 ^3,7] decan} -4-yl)phenyl-B-D-galactopyranoside); Tropix, Inc., Cat. #GS100), 20.0 ml of SAPHIRE II™ luminescence signal enhancer (Tropix, Inc., Cat. #LAX250), and 76 ml of Lysis Buffer (0.026% Na Deoxycholic acid, 0.053% CTAB, 265 mM NaCl, 395 mM HEPES, pH 7.5). The plates are incubated at room temperature for 45 minutes, before vortexing them for 30 seconds at a low to moderate speed.
# A chemiluminescent signal is produced by reaction of β-galactosidase with the substrate. Chemiluminescence can be measured using a TopCount-HTS, with the data mode set to measure […], and with a count time of 0.1 minute. Generally, chemiluminescence should be measured before significant signal decay occurs (i.e., within approximately 90 minutes of initiating the reaction).
# Screening plates containing 80,000 individual small molecule compounds (comprising a diversity file) were prepared at concentrations of 100 μM in 96-well plastic clear-bottom plates (Packard, Inc. Cat. # 6005181).
# YOL101c promoter = assay: YOL101c promoter-lacZ reporter induction (chemiluminescence); type: cell-based, S. cerevisiae
# Excerpt: as §1
# S. cerevisiae mdr mutant = assay: Fungal growth inhibition (OD600) / MIC testing; type: cell-based; details: for MIC: Saccharomyces cerevisiae
# Description: Assay of Fungal Growth Inhibition: If desired, the ability of each candidate compound to inhibit fungal growth can readily be measured as follows. After incubating the yeast cultures and test compounds for 6 hours in the 96-well plates, as described above, the OD600 of the plates is measured (e.g., using a Wallac/Victor 2 plate reader). The OD600 can be measured before or after the above-described chemiluminescent assay. A test compound that decreases the OD600 of a yeast culture, relative to the OD600 obtained in the absence of the candidate compound, is an antifungal agent.
# For the assay, the reporter strains were grown at 30° C. overnight (approximately 14-15 hours) in SC-Leu medium. Typically, the cultures were grown to an OD600 of 0.1, though cells at OD600 of 0.05-0.15 were also appropriate. Plates were then seeded with a 100 μl aliquot of the yeast culture and incubated at 30° C. for approximately 6 hours. To identify antifungal compounds (those affording growth inhibition), the OD600 was measured using a Wallac/Victor 2 plate reader.
# The library of 80,000 small molecule compounds was screened for FAS inhibitors at concentration of 100 μM with the Pole1-lacZ reporter strain. Hits were defined as compounds that afforded 2-fold Pole1-lacZ induction. The primary screen yielded 850 hits (1.1% hit rate) as defined above. Among these, 182 were deemed structurally acceptable and subjected to retesting using the same Pole1-IacZ induction assay and an antifungal assay by growth inhibition in MIC testing.
# YGL039w promoter = assay: YGL039w promoter-lacZ reporter induction; type: cell-based, S. cerevisiae
# Excerpt: as §1
# Having determined that antiflingal agents like cerulenin increase the activity of the OLE1 and YOL101 c promoters, yeast strains containing one or both promoters each operably linked to a reporter gene (e.g., lacZ) can be used in a method for determining whether a test compound is an inhibitor of fungal fatty acid synthesis and is thus a candidate antifungal agent. Such a method can be carried out as follows. […]
# [1] = system: OLE1, YOL101c, and YGL039w genes; assay: Transcriptional profiling (TxP) of yeast treated with FAS inhibitor; type: cell-based; details: 0.1, 0.2 and 0.3 μM; 3 and 5 hour time points
# Description: Logarithmically growing hypersensitive yeast MMB 1489 (Δpdr5 Δsnq2) cells were treated with cerulenin at 0.5 X, 1 X, and 1.5 X the MIC value (0.1, 0.2 and 0.3 μM) and cells were harvested at 1, 3 and 5 hour time points following drug treatment. Total RNA was obtained from cell pellets treated with 0.1, 0.2, and 0.3 μM cerulenin. […] Following hybridization, the data was normalized, filtered and analyzed.
# [2] = system: S. cerevisiae MMB1493 or C. albicans SC5314 or Y01.06; assay: 14C-acetate incorporation into fatty acids; type: cell-based; details: 10 minutes preincubation, 10 minutes with 14C-acetate, 30° C.
# Description: Generally, ^14C-acetate incorporation is measured essentially as described in Kuhajda et al., P.N.A.S., 91:6379-6383, 1994. Logarithmically growing cells (4^8 cells of S. cerevisiae MMB1493 or C. albicans SC5314 or Y01.06) were preincubated with 100 μM compounds in DMSO for 10 minutes at 30° C. ^14C-Acetate was added to 20 μCi, mixed and further incubated for 10 minutes at 30° C. Fatty acids were recovered by alkaline ethanolysis (7.5% KOH in 90% ethanol, 1 00ul) at 50° C. for 1 hour, followed by acidification with concentrated HCl (15 μl) and petroleum ether extraction. The radioactivity in the organic layer was counted using a Beckman LS650 multipurpose scintillation counter using Betamax (ICN) scintillation fluid. Cerulenin was used as control at 100 μM; at this concentration 80-90% inhibition was routinely observed in this assay.
# [3] = molecular target: T1, Saccharomyces cerevisiae FAS complex (Saccharomyces cerevisiae, UniProt P07149+P19097); assay: FAS assay measuring NADPH oxidation; type: biochemical
# T1 construct: A FAS assay using partially purified S. cerevisiae FAS complex was used to measure NADPH oxidation; tissue Sigma; host or cells: yeast extract (Sigma), FAS complex partially purified after Stoops et al. 1978
# T1 sequence (P07149 whole entry): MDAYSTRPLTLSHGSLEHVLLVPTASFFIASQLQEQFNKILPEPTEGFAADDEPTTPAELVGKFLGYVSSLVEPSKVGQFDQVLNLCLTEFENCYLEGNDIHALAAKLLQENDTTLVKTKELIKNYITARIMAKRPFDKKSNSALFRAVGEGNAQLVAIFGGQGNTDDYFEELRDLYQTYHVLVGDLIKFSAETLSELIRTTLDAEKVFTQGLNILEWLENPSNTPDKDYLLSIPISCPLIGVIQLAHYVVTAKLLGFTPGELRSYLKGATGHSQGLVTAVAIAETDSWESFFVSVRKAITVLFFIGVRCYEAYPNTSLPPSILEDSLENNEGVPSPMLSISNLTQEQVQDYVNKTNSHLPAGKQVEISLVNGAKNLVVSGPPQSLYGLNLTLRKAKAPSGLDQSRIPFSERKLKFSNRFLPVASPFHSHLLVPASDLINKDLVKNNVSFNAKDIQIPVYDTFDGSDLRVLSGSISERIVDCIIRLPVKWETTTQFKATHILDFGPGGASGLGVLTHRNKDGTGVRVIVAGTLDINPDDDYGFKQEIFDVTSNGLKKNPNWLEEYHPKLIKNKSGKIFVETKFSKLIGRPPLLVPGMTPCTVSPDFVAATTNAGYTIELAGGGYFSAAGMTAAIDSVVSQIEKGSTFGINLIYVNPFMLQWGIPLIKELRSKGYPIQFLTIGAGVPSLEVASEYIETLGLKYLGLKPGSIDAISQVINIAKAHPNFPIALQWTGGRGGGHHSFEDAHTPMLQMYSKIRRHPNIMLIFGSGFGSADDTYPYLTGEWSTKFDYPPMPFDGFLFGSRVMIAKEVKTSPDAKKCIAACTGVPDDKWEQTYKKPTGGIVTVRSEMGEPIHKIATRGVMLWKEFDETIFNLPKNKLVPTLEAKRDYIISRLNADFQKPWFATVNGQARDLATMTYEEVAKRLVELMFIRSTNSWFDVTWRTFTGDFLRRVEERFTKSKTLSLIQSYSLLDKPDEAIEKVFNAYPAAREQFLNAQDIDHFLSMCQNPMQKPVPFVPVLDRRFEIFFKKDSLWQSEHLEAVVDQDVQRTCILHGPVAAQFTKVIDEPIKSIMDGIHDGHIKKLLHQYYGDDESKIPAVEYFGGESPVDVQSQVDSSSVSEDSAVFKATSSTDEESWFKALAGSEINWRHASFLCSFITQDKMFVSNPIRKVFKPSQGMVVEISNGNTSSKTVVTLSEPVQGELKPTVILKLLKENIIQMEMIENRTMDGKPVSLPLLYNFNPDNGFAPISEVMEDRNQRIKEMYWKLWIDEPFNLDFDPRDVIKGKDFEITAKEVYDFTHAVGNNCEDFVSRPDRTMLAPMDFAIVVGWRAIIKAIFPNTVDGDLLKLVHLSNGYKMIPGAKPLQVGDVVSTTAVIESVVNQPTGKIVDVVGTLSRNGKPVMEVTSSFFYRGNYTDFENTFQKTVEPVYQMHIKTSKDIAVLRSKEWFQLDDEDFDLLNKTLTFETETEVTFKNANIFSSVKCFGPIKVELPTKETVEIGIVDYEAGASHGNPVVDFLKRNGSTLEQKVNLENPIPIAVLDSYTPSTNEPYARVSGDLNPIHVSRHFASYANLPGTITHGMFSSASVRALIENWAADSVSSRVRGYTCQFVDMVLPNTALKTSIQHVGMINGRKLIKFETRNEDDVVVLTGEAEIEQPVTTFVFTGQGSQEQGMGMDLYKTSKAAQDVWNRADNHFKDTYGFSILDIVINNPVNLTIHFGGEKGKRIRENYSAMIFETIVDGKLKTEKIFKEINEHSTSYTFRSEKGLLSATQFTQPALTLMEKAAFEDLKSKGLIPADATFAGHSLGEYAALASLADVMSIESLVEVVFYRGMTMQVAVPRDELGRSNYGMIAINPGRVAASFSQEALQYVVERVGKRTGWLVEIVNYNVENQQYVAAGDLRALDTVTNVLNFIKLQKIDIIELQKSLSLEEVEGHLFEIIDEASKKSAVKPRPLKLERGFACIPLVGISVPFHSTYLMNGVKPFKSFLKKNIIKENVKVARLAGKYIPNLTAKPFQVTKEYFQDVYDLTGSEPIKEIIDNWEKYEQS
# T1 sequence (P19097 whole entry): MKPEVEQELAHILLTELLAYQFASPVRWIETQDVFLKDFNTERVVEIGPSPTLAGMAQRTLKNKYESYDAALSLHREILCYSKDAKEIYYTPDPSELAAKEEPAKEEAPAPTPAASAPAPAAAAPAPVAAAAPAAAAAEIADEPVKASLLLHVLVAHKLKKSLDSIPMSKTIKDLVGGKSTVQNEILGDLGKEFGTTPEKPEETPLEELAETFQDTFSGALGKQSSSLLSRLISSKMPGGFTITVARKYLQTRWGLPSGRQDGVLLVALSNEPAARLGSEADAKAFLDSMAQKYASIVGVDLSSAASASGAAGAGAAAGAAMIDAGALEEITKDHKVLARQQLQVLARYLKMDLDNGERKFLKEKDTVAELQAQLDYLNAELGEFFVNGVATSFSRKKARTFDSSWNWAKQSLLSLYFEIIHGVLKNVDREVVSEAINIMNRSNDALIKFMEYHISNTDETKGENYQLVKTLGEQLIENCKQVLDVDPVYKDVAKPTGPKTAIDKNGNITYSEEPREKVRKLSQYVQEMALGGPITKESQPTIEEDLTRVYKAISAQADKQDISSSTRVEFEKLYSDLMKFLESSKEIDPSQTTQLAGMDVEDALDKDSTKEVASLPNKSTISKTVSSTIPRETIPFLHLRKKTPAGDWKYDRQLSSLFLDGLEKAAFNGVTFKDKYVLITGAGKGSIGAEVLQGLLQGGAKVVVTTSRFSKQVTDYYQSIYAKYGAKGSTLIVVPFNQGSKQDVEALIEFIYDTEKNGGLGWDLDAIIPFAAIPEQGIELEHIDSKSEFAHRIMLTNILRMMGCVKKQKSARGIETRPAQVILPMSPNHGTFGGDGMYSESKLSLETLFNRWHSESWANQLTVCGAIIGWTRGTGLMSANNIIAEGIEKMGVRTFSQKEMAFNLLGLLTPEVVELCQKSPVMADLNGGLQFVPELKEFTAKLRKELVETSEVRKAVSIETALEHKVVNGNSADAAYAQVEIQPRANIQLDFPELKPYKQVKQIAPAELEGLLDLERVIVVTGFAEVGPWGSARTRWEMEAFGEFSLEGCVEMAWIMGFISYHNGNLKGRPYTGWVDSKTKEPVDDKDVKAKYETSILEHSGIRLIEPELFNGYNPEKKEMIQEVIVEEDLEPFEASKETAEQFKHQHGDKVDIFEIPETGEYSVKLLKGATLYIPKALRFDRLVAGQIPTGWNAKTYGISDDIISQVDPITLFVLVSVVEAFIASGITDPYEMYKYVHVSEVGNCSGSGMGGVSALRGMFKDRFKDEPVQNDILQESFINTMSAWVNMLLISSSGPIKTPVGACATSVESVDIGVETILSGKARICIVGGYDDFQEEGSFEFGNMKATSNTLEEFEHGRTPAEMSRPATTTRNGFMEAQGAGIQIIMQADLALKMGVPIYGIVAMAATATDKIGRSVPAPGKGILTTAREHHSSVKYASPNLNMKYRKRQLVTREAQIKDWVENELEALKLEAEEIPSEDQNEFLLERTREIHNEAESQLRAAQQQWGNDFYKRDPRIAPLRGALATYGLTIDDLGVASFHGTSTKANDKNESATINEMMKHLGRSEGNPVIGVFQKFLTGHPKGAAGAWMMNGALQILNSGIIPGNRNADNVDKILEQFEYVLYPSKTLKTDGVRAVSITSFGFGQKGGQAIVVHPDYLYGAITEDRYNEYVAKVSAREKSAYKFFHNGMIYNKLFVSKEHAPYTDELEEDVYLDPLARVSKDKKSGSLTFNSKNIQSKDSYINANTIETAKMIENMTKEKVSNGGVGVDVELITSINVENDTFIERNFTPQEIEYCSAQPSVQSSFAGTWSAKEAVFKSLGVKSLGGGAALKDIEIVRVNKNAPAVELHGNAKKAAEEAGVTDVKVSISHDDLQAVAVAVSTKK
# Description: In another inhibition assay, Saccharomyces cerevisiae FAS complex was obtained from a yeast extract (Sigma) and assayed as described in (Stoops et al., J.B.C., 253:4464-4475, 1978). A crude preparation of Candida albicans FAS can be prepared from a 1-21 YPD overnight culture of SC5314 following essentially the protocol used for S. cerevisiae FAS, with the exception that the last purification step by gel filtration was omitted. The assay cocktail contains: 0.14 mM NADPH, 0.36 mM acetyl-CoA, 0.18 mM malonyl-CoA, 5 mM EDTA, 8 mM DTT, 0.1 M MES pH 6, 100 μM compound in 1% DMSO, and fungal FAS extract. Changes in NADPH oxidation are followed for 1 hour using a BMG fluorimeter set at 340 nm excitation and 460 nm emission. The inhibition of fatty acid synthesis in these assays is expressed as a percent activity compared to the one obtained using 1% DMSO.
# A FAS assay using partially purified S. cerevisiae FAS complex was used to measure NADPH oxidation as described herein.
compound,measurement,setting,value
"C/C=C/C/C=C/CCC(=O)[C@H]1O[C@H]1C(N)=O [Cerulenin, 2,3-Epoxy-4-oxo-7,1-dodecadienamide]","lacZ gene expression, OLE1 promoter strain",OLE1 promoter,increase in lacZ gene expression
same,induction of promoter activity,OLE1 promoter; 0.2 μg/ml,partial induction of promoter activity
same,induction of promoter activity,OLE1 promoter; 0.9 μM,50%
same,increase in the level of chemiluminescence relative to uninduced control,OLE1 promoter; 2.0 μg/ml,100 fold
same,induction of promoter activity,OLE1 promoter; 2.0 μg/ml,maximum induction of promoter activity
same,induction of promoter activity,OLE1 promoter; 9 μM,maximum induction of promoter activity
same,increase in chemiluminescence,"OLE1 promoter; 9 μM, OLE1 promoter strain",100-300 fold
same,OLE1 Fold-induction (100 μM),"OLE1 promoter; 100 μM, Pole1-lacZ reporter strain",479 Fold
same,"lacZ gene expression, YOL101c promoter strain",YOL101c promoter,increase in lacZ gene expression
same,increase in chemiluminescence,"YOL101c promoter; 9 μM, YOL101c promoter strain",100-300 fold
same,inhibition of fungal growth,S. cerevisiae mdr mutant; 0.2 μg/ml,no detectable inhibition of fungal growth
same,inhibition of fungal growth,S. cerevisiae mdr mutant; 0.9 μM,no detectable inhibition of fungal growth
same,inhibition of fungal growth,S. cerevisiae mdr mutant; 2.0 μg/ml,maximum inhibition of fungal growth
same,inhibition of fungal growth,S. cerevisiae mdr mutant; 9 μM,maximum inhibition of fungal growth
same,MIC,S. cerevisiae mdr mutant,0.2 to 0.9 µM
same,MIC,S. cerevisiae mdr mutant; read-out: MIC value,0.2 µM
same,"lacZ gene expression, YGL039w promoter strain",YGL039w promoter,increase in lacZ gene expression
same,"gene induction of OLE1, YOL101c and YGL039w (mRNA)",[1],most highly induced genes
same,inhibition at 100 µM,[2],80 to 90%
same,inhibition at 100 µM,"[3]; 100 μM, within the first 30 minutes, read-out: inhibition of fatty acid synthesis (NADPH oxidation)",80 to 90%
same,inhibition at 100 µM,[3]; read-out: FAS-NADPH ox % Inhibition @ 100 μM,81%
same,IC50,[3]; read-out: FAS-NADPH ox IC50,700 to 1300 nM
Clc1ccc(COC(Cn2ccnc2)c2ccc(Cl)cc2Cl)c(Cl)c1 (stereo not drawn) [miconoazole],induction of the OLE1 reporter,OLE1 promoter,induce this reporter
CCCCCCC(=O)CCCCCC/C=C/C[C@@H](O)[C@H](O)[C@@](N)(CO)C(=O)O [myriocin],induction of the OLE1 reporter,OLE1 promoter,induce this reporter
